Experimental data as given in patent publication EP1120414A1, “DISUBSTITUTED MALEIMIDE COMPOUNDS AND MEDICINAL UTILIZATION THEREOF” (Japan Tobacco Inc., priority 1998, dated 2000).
Read-outs that look alike come from different tables or passages of the source.

Columns and labels:
PKC β II = target: T1, PKC β II (Homo sapiens, UniProt P05771); assay: PKC enzyme assay (BIOTRAK Protein kinase C enzyme assay system, 32P-ATP phosphorylation of peptide […]); format: biochemical; conditions: for Ratio α/β: IC50 PKC α / IC50 PKC β II
T1 construct: purchased CALBIOCHEM
T1 sequence (P05771 other isoform, or with tags, fused parts or gaps): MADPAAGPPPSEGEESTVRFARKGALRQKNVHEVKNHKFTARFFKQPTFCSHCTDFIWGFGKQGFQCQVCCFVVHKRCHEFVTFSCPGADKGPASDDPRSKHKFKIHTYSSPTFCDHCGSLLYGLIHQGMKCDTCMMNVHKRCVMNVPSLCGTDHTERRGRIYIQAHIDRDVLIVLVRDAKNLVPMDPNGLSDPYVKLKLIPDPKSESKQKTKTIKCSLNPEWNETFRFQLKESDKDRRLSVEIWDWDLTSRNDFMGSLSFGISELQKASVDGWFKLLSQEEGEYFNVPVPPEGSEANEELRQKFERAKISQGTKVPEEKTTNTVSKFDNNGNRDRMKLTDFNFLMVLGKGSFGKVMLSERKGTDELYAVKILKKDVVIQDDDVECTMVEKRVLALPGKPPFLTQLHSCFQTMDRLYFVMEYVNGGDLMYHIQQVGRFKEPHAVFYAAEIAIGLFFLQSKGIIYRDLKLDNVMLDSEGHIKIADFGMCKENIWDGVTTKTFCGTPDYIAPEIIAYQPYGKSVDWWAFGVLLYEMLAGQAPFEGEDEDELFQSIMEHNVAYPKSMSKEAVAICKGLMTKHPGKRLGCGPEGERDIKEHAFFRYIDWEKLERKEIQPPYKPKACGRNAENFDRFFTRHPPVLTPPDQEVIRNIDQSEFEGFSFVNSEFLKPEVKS

PKC α = target: T2, PKC α (Homo sapiens, UniProt P17252); assay: as above; format: biochemical
T2 construct: purchased CALBIOCHEM
Summary of the method: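 Recombinant human PKC (400 ng/ml solution) phosphorylated the supplied peptide with [γ-32P]ATP in calcium, phosphatidylserine/PMA, DTT and Mg-ATP buffer, 15 min at 37°C. Compounds were tested at 1 nM-10 µM final. Phosphocellulose-bound radioactivity relative to DMSO gave inhibition, from which IC50 was calculated.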

[1] = Protein Kinase C, Human Recombinant, test substance 1 nM-10 µM, 37°C, 15 minutes, read-out: Inhibition of PKC activity IC50 PKC β II
[2] = Protein Kinase C, Human Recombinant, test substance 1 nM-10 µM, 37°C, 15 minutes, read-out: Inhibition of PKC activity IC50 PKC α
[3] = read-out: Inhibition of PKC activity IC50 PKC β II, Protein Kinase C, Human Recombinant, test substance 1 nM-10 µM, 37°C, 15 minutes
[4] = read-out: Inhibition of PKC activity IC50 PKC α, Protein Kinase C, Human Recombinant, test substance 1 nM-10 µM, 37°C, 15 minutes

SMILES | Ratio α/β (PKC β II) | IC50 (PKC β II; [1]) | IC50 (PKC α; [2]) | IC50 (PKC β II) | IC50 (PKC α) | IC50 (PKC β II; [3]) | IC50 (PKC α; [4])
O=C1NC(=O)C(c2cn(CCCn3ccnc3)c3ccccc23)=C1Nc1ccc(F)cc1 [Example 2-68, 3-[(4-fluorophenyl)amino]-4-[1-(3-imidazol-1-ylpropyl)-1H-indol-3-yl]-1H-pyrrole-2,5-dione] | 53 | 6 nM | 315 nM | – | – | – | –
Cc1c(C2=C(Nc3ccccc3)C(=O)NC2=O)c2ccccc2n1CCCn1ccnc1 [Example 2-69, 3-[1-(3-imidazol-1-ylpropyl)-2-methyl-1H-indol-3-yl]-4-(phenylamino)-1H-pyrrole-2,5-dione] | 117 | 20 nM | 2350 nM | – | – | – | –
O=C1NC(=O)C(c2cn(CC3CCCNC3)c3ccccc23)=C1Nc1ccccc1 (centres unmarked) [Example 3-1, 3-(phenylamino)-4-[1-(3-piperidylmethyl)-1H-indol-3-yl]-1H-pyrrole-2,5-dione] | 27 | 18 nM | 484 nM | – | – | – | –
O=C1NC(=O)C(c2cn(CC3CCNCC3)c3ccccc23)=C1Nc1ccccc1 [Example 3-2, 3-(phenylamino)-4-[1-(4-piperidylmethyl)-1H-indol-3-yl]-1H-pyrrole-2,5-dione] | 19 | 16 nM | 298 nM | – | – | – | –
CN1CCCC(Cn2cc(C3=C(Nc4ccccc4)C(=O)NC3=O)c3ccccc32)C1 (centres unmarked) [Example 3-3, 3-[1-{(1-methylpiperidin-3-yl)methyl}-1H-indol-3-yl]-4-(phenylamino)-1H-pyrrole-2,5-dione] | 47 | 57 nM | 2650 nM | – | – | – | –
CN1CCC(Cn2cc(C3=C(Nc4ccccc4)C(=O)NC3=O)c3ccccc32)CC1 [Example 3-4, 3-[1-{(1-methylpiperidin-4-yl)methyl}-1H-indol-3-yl]-4-(phenylamino)-1H-pyrrole-2,5-dione] | 29 | 18 nM | 518 nM | – | – | – | –
O=C1NC(=O)C(c2cn(CC3CCN(CC(O)CO)CC3)c3ccccc23)=C1Nc1ccccc1 (centres unmarked) [Example 3-5, 3-[1-{[1-(2,3-dihydroxypropyl)piperidin-4-yl]methyl}-1H-indol-3-yl]-4-(phenylamino)-1H-pyrrole-2,5-dione] | 56 | 29 nM | 1630 nM | – | – | – | –
NC(=O)N1CCC(Cn2cc(C3=C(Nc4ccccc4)C(=O)NC3=O)c3ccccc32)CC1 [Example 3-6, 3-[1-{(1-carbamoylpiperidin-4-yl)methyl}-1H-indol-3-yl]-4-(phenylamino)-1H-pyrrole-2,5-dione] | 34 | 108 nM | 3660 nM | – | – | – | –
Cl.N=C(N)N1CCC(Cn2cc(C3=C(Nc4ccccc4)C(=O)NC3=O)c3ccccc32)CC1 [Example 3-7, 3-[1-{(1-amidinopiperidin-4-yl)methyl}-1H-indol-3-yl]-4-(phenylamino)-1H-pyrrole-2,5-dione hydrochloride] | 46 | 56 nM | 2560 nM | – | – | – | –
O=C1NC(=O)C(c2c3n(c4ccccc24)CCC(CO)C3)=C1Nc1ccccc1 (centres unmarked) [Example 4-1, 3-[8-hydroxymethyl-6,7,8,9-tetrahydropyrido[1,2-a]indol-10-yl]-4-(phenylamino)-1H-pyrrole-2,5-dione] | 61 | 14 nM | 852 nM | – | – | – | –
CN(C)CC1CCn2c(c(C3=C(Nc4ccccc4)C(=O)NC3=O)c3ccccc32)C1 (centres unmarked) [Example 4-2, 3-[8-(dimethylaminomethyl)-6,7,8,9-tetrahydropyrido[1,2-a]indol-10-yl]-4-(phenylamino)-1H-pyrrole-2,5-dione] | 51 | 5 nM | 257 nM | – | – | – | –
O=C1NC(=O)C(c2c3n(c4ccccc24)CCC(Cn2ccnc2)C3)=C1Nc1ccccc1 (centres unmarked) [Example 4-3, 3-[8-(1-imidazolylmethyl)-6,7,8,9-tetrahydropyrido[1,2-a]indol-10-yl]-4-(phenylamino)-1H-pyrrole-2,5-dione] | – | – | – | 16 nM | 1630 nM | – | –
CCN(C)C[C@H]1CCn2c(c(C3=C(Nc4ccccc4)C(=O)NC3=O)c3ccccc32)C1 [Example 4-24] | 68 | – | – | – | – | 3 nM | 204 nM
O=C1NC(=O)C(c2c3n(c4ccccc24)CC[C@H](CN2CCOCC2)C3)=C1Nc1ccccc1 [Example 4-26] | 85 | – | – | – | – | 9 nM | 768 nM
O=C1NC(=O)C(c2c3n(c4ccccc24)CC(CN2CCC(O)CC2)C3)=C1Nc1ccccc1 (centres unmarked) [Example 4-27] | 64 | – | – | – | – | 13 nM | 831 nM
O=C1NC(=O)C(c2c3n(c4ccccc24)CC(CN2CCSCC2)C3)=C1Nc1ccccc1 (centres unmarked) [Example 4-28] | 134 | – | – | – | – | 25 nM | 3360 nM
O=C1NC(=O)C(c2c3n(c4ccccc24)CC[C@H](CN2CCSCC2)C3)=C1Nc1ccccc1 [Example 4-30] | 131 | – | – | – | – | 5 nM | 654 nM
CCNCC1Cc2c(C3=C(Nc4ccccc4)C(=O)NC3=O)c3ccccc3n2C1 (centres unmarked) [Example 4-31] | 64 | – | – | – | – | 3 nM | 186 nM
CNCC1Cc2c(C3=C(Nc4ccc(F)cc4)C(=O)NC3=O)c3ccccc3n2C1 (centres unmarked) [Example 4-32] | 60 | – | – | – | – | 4 nM | 228 nM
CCNCC1Cc2c(C3=C(Nc4ccc(F)cc4)C(=O)NC3=O)c3ccccc3n2C1 (centres unmarked) [Example 4-33] | 75 | – | – | – | – | 4 nM | 321 nM
O=C1NC(=O)C(c2c3n(c4ccccc24)CC(Cn2ccnc2)C3)=C1Nc1ccccc1 (centres unmarked) [Example 4-37] | 85 | – | – | – | – | 7 nM | 592 nM

SMILES | Ratio α/β (PKC β II) | IC50 (PKC β II; [1]) | IC50 (PKC α; [2]) | IC50 (PKC β II) | IC50 (PKC α) | IC50 (PKC β II; [3]) | IC50 (PKC α; [4])
O=C1NC(=O)C(c2c3n(c4ccccc24)CCCC(Cn2ccnc2)C3)=C1Nc1ccccc1 (centres unmarked) [Example 4-38] | 244 | – | – | – | – | 41 nM | > 10000 nM
CCN(C)C[C@@H]1CCc2c(C3=C(Nc4ccccc4)C(=O)NC3=O)c3ccccc3n2C1 [Example 4-40] | 93 | – | – | 6 nM | 557 nM | – | –
CN(C)C[C@@H]1CCc2c(C3=C(Nc4ccccc4)C(=O)NC3=O)c3ccccc3n2C1 [Example 4-41] | 74 | 6 nM | – | – | – | – | 445 nM
O=C1NC(=O)C(c2c3n(c4ccccc24)C[C@H](CN2CCOCC2)CC3)=C1Nc1ccccc1 [Example 4-42] | 121 | – | – | – | – | 22 nM | 2660 nM
O=C1NC(=O)C(c2c3n(c4ccccc24)C[C@H](CO)C=C3)=C1Nc1ccccc1 [Example 4-43] | 107 | – | – | – | – | 7 nM | 749 nM
NC(=O)c1cccc(NC2=C(c3c4n(c5ccccc35)C[C@H](CO)CC4)C(=O)NC2=O)c1 [Example 4-46] | 112 | – | – | – | – | 89 nM | > 10000 nM
CCN(C)C[C@@H]1CCc2c(C3=C(Nc4cccc(SC)c4)C(=O)NC3=O)c3ccccc3n2C1 [Example 4-48] | 74 | – | – | – | – | 34 nM | 2530 nM
CCN(C)C[C@@H]1CCc2c(C3=C(Nc4ccc5c(c4)OCO5)C(=O)NC3=O)c3ccccc3n2C1 [Example 4-49] | 82 | – | – | – | – | 33 nM | 2710 nM
CCN(CC)C[C@@H]1CCc2c(C3=C(Nc4ccccc4)C(=O)NC3=O)c3ccccc3n2C1 [Example 4-50] | 82 | – | – | – | – | 6 nM | 494 nM
CCN(C)CC1CCc2c(C3=C(Nc4ccccc4)C(=O)NC3=O)c3ccccc3n2C1 (centres unmarked) [Example 4-51] | 101 | – | – | 7 nM | 708 nM | – | –
O=C1NC(=O)C(c2c3n(c4ccccc24)C[C@@H](CN2CCOCC2)CC3)=C1Nc1ccccc1 [Example 4-52] | 68 | – | – | – | – | 57 nM | 3880 nM
O=C1NC(=O)C(c2c3n(c4ccccc24)C[C@@H](CO)C=C3)=C1Nc1ccccc1 [Example 4-53] | 106 | – | – | – | – | 14 nM | 1480 nM
CCN(CC)C[C@H]1CCc2c(C3=C(Nc4ccccc4)C(=O)NC3=O)c3ccccc3n2C1 [Example 4-54] | 57 | – | – | – | – | 10 nM | 569 nM
CN(C)C[C@H]1CCc2c(C3=C(Nc4ccccc4)C(=O)NC3=O)c3ccccc3n2C1 [Example 4-55] | 63 | 4 nM | – | – | – | – | 252 nM
COC[C@H]1Cc2c(C3=C(Nc4ccccc4)C(=O)NC3=O)c3ccccc3n2C1 [Example 4-56] | 131 | – | – | 40 nM | 5220 nM | – | –
COC[C@H]1Cc2c(C3=C(Nc4ccc(F)cc4)C(=O)NC3=O)c3ccccc3n2C1 [Example 4-57] | 77 | – | – | – | – | 84 nM | 6460 nM
O=C1NC(=O)C(c2c3n(c4ccccc24)C[C@H](CO)C3)=C1Nc1ccccc1 [Example 4-58] | 73 | 14 nM | – | – | – | – | 1020 nM
O=C1NC(=O)C(c2c3n(c4ccccc24)C[C@H](CN2CCOCC2)C3)=C1Nc1ccccc1 [Example 4-59] | 109 | – | – | – | – | 46 nM | 4990 nM
O=C1NC(=O)C(c2c3n(c4ccccc24)C[C@@H](CO)C3)=C1Nc1ccccc1 [Example 4-60] | 115 | 4 nM | – | – | – | – | 458 nM
CCN(C)C[C@H]1Cc2c(C3=C(Nc4ccccc4)C(=O)NC3=O)c3ccccc3n2C1 [Example 4-61] | 96 | 5 nM | – | – | – | – | 481 nM
COc1ccc(NC2=C(c3c4n(c5ccccc35)C[C@@H](CO)C4)C(=O)NC2=O)cc1 [Example 4-62] | 50 | – | – | – | – | 16 nM | 794 nM
